IC50 data for two compounds are collected here from ChEMBL document CHEMBL3108747, “Synthesis and evaluation of novel cyclic Peptide inhibitors of lysine-specific demethylase 1” (ACS Med Chem Lett, 2014).

The nature of one test: cells. The note with it: Homo sapiens, Calu-6, 72 h.
Another test has as its system MCF7. As to the kind of experiment: cells. As to conditions: Homo sapiens, MCF7, 72 h.

Description for MCF7: Cytotoxicity against human MCF7 cells assessed as cell viability after 72 hrs by MTS assay

With `CSCC[C@H](NC(=O)[C@@H](NC(=O)[C@H](CCCNC(=N)N)NC(=O)[C@H](C)N)[C@@H](C)O)C(=O)N[C@H]1CCCCNC(=O)CC[C@@H](C(=O)N[C@H](C(=O)NCC(=O)NCC(=O)N[C@@H](CCCCN)C(=O)N[C@@H](C)C(=O)N2CCC[C@H]2C(=O)N[C@@H](CCCNC(=N)N)C(=O)N[C@@H](CCCCN)C(=O)N[C@@H](CCC(N)=O)C(=O)N[C@@H](CC(C)C)C(=O)N[C@@H](C)C(N)=O)[C@@H](C)O)NC(=O)[C@H](CCCCN)NC(=O)[C@H](CCCNC(=N)N)NC(=O)[C@H](C)NC(=O)[C@H]([C@@H](C)O)NC1=O`, the half-maximal inhibitory concentration (IC50) in “cells” turned out to be 125 µM; with MCF7, 157 µM.

`N=C(NCCCNCCCCCCCNCCCNC(=N)NC(=N)NCCC(c1ccccc1)c1ccccc1)NC(=N)NCCC(c1ccccc1)c1ccccc1` had an IC50 in the test “cells” of 10.9 µM.

Usually IC50 stands for the concentration that inhibits the measured activity by half. A higher IC50 goes with weaker potency.
